Experimental findings from US20040030161A1, “Recovery and purification of anhydro sugar alcohols from a vapor stream” (priority 2002, published 2004) are described below.

This data set is classed as physicochemical. The protocol:
The basis for this process is illustrated for isosorbide in FIG. 1, where the upper curve represents the solubility of isosorbide in water (as percent by weight isosorbide) on the x-axis vs. temperature on the y-axis. The lower curve represents the composition of the condensate (as percent by weight isosorbide) when the condensation is conducted at a pressure of about 14 mm Hg. […] The condensate is a highly concentrated solution of isosorbide and contains only a small fraction as water. Thus, by conducting the condensation under these conditions, most of the isosorbide from, for example, a 20-30 weight percent isosorbide aqueous vapor stream is recovered, leaving most of the water in the vapor phase. The amount of isosorbide left in the vapor is negligibly small because of the very low vapor pressure of isosorbide, on the order of only about 0.001 mm Hg, at a condensation temperature of about 45° C.

Each structure is given as a SMILES string.

Turning to `O[C@@H]1CO[C@H]2[C@@H]1OC[C@@H]2O` [isosorbide, 1,4:3,6-dianhydrosorbitol], the “solubility of isosorbide in water (percent by weight isosorbide)” value is roughly 100%.
